Measurements taken from patent US5672715A, “Herbicidal substituted 3-aryl-pyrazoles” (Monsanto Company, priority 1995, dated 1997).
Read-outs that look alike come from different tables or passages of the source.

Assays:
Type in all cases: in vivo
Barnyardgrass [1] = assay: post-emergence herbicide test; conditions: Echinochloa crus-galli, post-emergence, read-out: % plant inhibition
In short: (§1)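 Two- to three-week-old plants, greenhouse-grown in compacted topsoil, received candidate chemical by atomizer spray at 1870 L/Ha. Scored as percent inhibition.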

Blackgrass = assay: post-emergence herbicide test; conditions: Alopecurus myosuroides, post-emergence, read-out: % plant inhibition; for inhibition at 7.95803 g/ha: 0.0071 lb/A; for inhibition at 40.0143 g/ha: 0.0357 lb/A; for inhibition at 200.072 g/ha: 0.1785 lb/A; for inhibition at 1000.92 g/ha: 0.893 lb/A
In short: as §1

Corn [2] = assay: post-emergence herbicide test; conditions: Zea mays, post-emergence, read-out: % plant inhibition
In short: as §1

Bedstraw Catchweed = assay: post-emergence herbicide test; conditions: Galium aparine, post-emergence, read-out: % plant inhibition
In short: as §1

Soybean [3] = assay: post-emergence herbicide test; conditions: Glycine max, post-emergence, read-out: % plant inhibition
In short: as §1

Cocklebur [4] = assay: post-emergence herbicide test; conditions: Xanthium strumarium, post-emergence, read-out: % plant inhibition
In short: as §1

Barnyardgrass [5] = assay: pre-emergence herbicide test; conditions: Echinochloa crus-galli, pre-emergence, read-out: % plant inhibition
In short: (§2)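 Seeds were sown on compacted topsoil in pans and covered with a topsoil layer carrying a known amount of active ingredient in acetone or water, applied before or after covering. Pans were bottom-watered on a greenhouse bench, and % inhibition was scored about 14 days after seeding and treatment.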

Yellow Nutsedge = assay: pre-emergence herbicide test; conditions: Cyperus, read-out: % plant inhibition
In short: as §2

Yellow Foxtail = assay: pre-emergence herbicide test; conditions: Setaria, read-out: % plant inhibition
In short: as §2

Corn [6] = assay: pre-emergence herbicide test
In short: as §2

Soybean [7] = assay: pre-emergence herbicide test; conditions: Glycine max, pre-emergence, read-out: % plant inhibition
In short: as §2

Rice = assay: pre-emergence herbicide test; conditions: Oryza sativa, read-out: % plant inhibition
In short: as §2

Velvetleaf = assay: pre-emergence herbicide test; conditions: Abutilon theophrasti, pre-emergence, read-out: % plant inhibition
In short: as §2

Morning Glory = assay: pre-emergence herbicide test; conditions: Ipomoea, pre-emergence, read-out: % plant inhibition
In short: as §2

Cocklebur [8] = assay: pre-emergence herbicide test; conditions: Xanthium strumarium, pre-emergence, read-out: % plant inhibition
In short: as §2

**Q.** How did the inhibition at 7.95803 g/ha (Barnyardgrass [1]; 0.0071 lb/A) turn out when `COc1cc(-c2nn(C)c(C(F)(F)F)c2C)c(F)cc1Cl` [Compound 37] was run?
**A.** 0%

**Q.** And the inhibition at 40.0143 g/ha (Barnyardgrass [1]; 0.0357 lb/A)?
**A.** 15%

**Q.** What about the inhibition at 200.072 g/ha (Barnyardgrass [1]; 0.1785 lb/A) of the same compound?
**A.** 65%

**Q.** And the inhibition at 1000.92 g/ha (Barnyardgrass [1]; 0.893 lb/A)?
**A.** 45%

**Q.** What about the inhibition at 7.95803 g/ha (Blackgrass; Table 4a) of the same compound?
**A.** 0%

**Q.** What about the inhibition at 7.95803 g/ha (Blackgrass; Table 5a) of the same compound?
**A.** 10%

**Q.** And the inhibition at 40.0143 g/ha (Blackgrass; Table 4a)?
**A.** 0%

**Q.** What about the inhibition at 40.0143 g/ha (Blackgrass; Table 5a) of the same compound?
**A.** 25%

**Q.** And the inhibition at 200.072 g/ha (Blackgrass; Table 4a)?
**A.** 10%

**Q.** And the inhibition at 200.072 g/ha (Blackgrass; Table 5a)?
**A.** 65%

**Q.** What about the inhibition at 1000.92 g/ha (Blackgrass; Table 4a) of the same compound?
**A.** 15%

**Q.** And the inhibition at 1000.92 g/ha (Blackgrass; Table 5a)?
**A.** 85%

**Q.** And the inhibition at 7.95803 g/ha (Corn [2]; 0.0071 lb/A)?
**A.** 5%

**Q.** What about the inhibition at 40.0143 g/ha (Corn [2]; 0.0357 lb/A) of the same compound?
**A.** 10%

**Q.** What about the inhibition at 200.072 g/ha (Corn [2]; 0.1785 lb/A) of the same compound?
**A.** 50%

**Q.** And the inhibition at 1000.92 g/ha (Corn [2]; 0.893 lb/A)?
**A.** 100%

**Q.** And the inhibition at 7.95803 g/ha (Bedstraw Catchweed; 0.0071 lb/A)?
**A.** 20%

**Q.** And the inhibition at 40.0143 g/ha (Bedstraw Catchweed; 0.0357 lb/A)?
**A.** 35%

**Q.** And the inhibition at 200.072 g/ha (Bedstraw Catchweed; 0.1785 lb/A)?
**A.** 75%

**Q.** And the inhibition at 1000.92 g/ha (Bedstraw Catchweed; 0.893 lb/A)?
**A.** 90%

**Q.** What about the inhibition at 7.95803 g/ha (Soybean [3]; 0.0071 lb/A) of the same compound?
**A.** 10%

**Q.** And the inhibition at 40.0143 g/ha (Soybean [3]; 0.0357 lb/A)?
**A.** 40%

**Q.** What about the inhibition at 200.072 g/ha (Soybean [3]; 0.1785 lb/A) of the same compound?
**A.** 40%

**Q.** What about the inhibition at 1000.92 g/ha (Soybean [3]; 0.893 lb/A) of the same compound?
**A.** 60%

**Q.** What about the inhibition at 7.95803 g/ha (Cocklebur [4]; 0.0071 lb/A) of the same compound?
**A.** 5%

**Q.** What about the inhibition at 40.0143 g/ha (Cocklebur [4]; 0.0357 lb/A) of the same compound?
**A.** 40%

**Q.** What about the inhibition at 200.072 g/ha (Cocklebur [4]; 0.1785 lb/A) of the same compound?
**A.** 55%

**Q.** And the inhibition at 1000.92 g/ha (Cocklebur [4]; 0.893 lb/A)?
**A.** 80%

**Q.** And the inhibition at 7.95803 g/ha (Barnyardgrass [5]; 0.0071 lb/A)?
**A.** 80%

**Q.** What about the inhibition at 40.0143 g/ha (Barnyardgrass [5]; 0.0357 lb/A) of the same compound?
**A.** 100%

**Q.** And the inhibition at 200.072 g/ha (Barnyardgrass [5]; 0.1785 lb/A)?
**A.** 100%

**Q.** What about the inhibition at 280.212 g/ha (Barnyardgrass [5]; 0.25 lb/A) of the same compound?
**A.** 100%

**Q.** What about the inhibition at 1000.92 g/ha (Barnyardgrass [5]; 0.893 lb/A) of the same compound?
**A.** 100%

**Q.** What about the inhibition at 7.95803 g/ha (Yellow Nutsedge; 0.0071 lb/A) of the same compound?
**A.** 0%

**Q.** What about the inhibition at 40.0143 g/ha (Yellow Nutsedge; 0.0357 lb/A) of the same compound?
**A.** 35%

**Q.** And the inhibition at 200.072 g/ha (Yellow Nutsedge; 0.1785 lb/A)?
**A.** 50%

**Q.** And the inhibition at 1000.92 g/ha (Yellow Nutsedge; 0.893 lb/A)?
**A.** 45%

**Q.** And the inhibition at 7.95803 g/ha (Yellow Foxtail; 0.0071 lb/A)?
**A.** 55%

**Q.** And the inhibition at 40.0143 g/ha (Yellow Foxtail; 0.0357 lb/A)?
**A.** 95%

**Q.** What about the inhibition at 200.072 g/ha (Yellow Foxtail; 0.1785 lb/A) of the same compound?
**A.** 100%

**Q.** And the inhibition at 280.212 g/ha (Yellow Foxtail; 0.25 lb/A)?
**A.** 100%

**Q.** What about the inhibition at 1000.92 g/ha (Yellow Foxtail; 0.893 lb/A) of the same compound?
**A.** 100%

**Q.** What about the “% plant inhibition” value (Corn [6]; 0.25 lb/A) of the same compound?
**A.** 98%

**Q.** What about the inhibition at 7.95803 g/ha (Corn [6]; Zea mays, pre-emergence, 0.0071 lb/A, read-out: % plant inhibition) of the same compound?
**A.** 25%

**Q.** And the inhibition at 40.0143 g/ha (Corn [6]; Zea mays, pre-emergence, 0.0357 lb/A, read-out: % plant inhibition)?
**A.** 50%

**Q.** What about the inhibition at 200.072 g/ha (Corn [6]; Zea mays, pre-emergence, 0.1785 lb/A, read-out: % plant inhibition) of the same compound?
**A.** 85%

**Q.** And the inhibition at 280.212 g/ha (Corn [6]; Zea mays, pre-emergence, 0.25 lb/A, read-out: % plant inhibition)?
**A.** 95%

**Q.** What about the inhibition at 1000.92 g/ha (Corn [6]; Zea mays, pre-emergence, 0.893 lb/A, read-out: % plant inhibition) of the same compound?
**A.** 100%

**Q.** And the inhibition at 7.95803 g/ha (Soybean [7]; 0.0071 lb/A)?
**A.** 20%

**Q.** What about the inhibition at 40.0143 g/ha (Soybean [7]; 0.0357 lb/A) of the same compound?
**A.** 50%

**Q.** What about the inhibition at 200.072 g/ha (Soybean [7]; 0.1785 lb/A) of the same compound?
**A.** 50%

**Q.** And the inhibition at 280.212 g/ha (Soybean [7]; 0.25 lb/A)?
**A.** 35%

**Q.** And the inhibition at 1000.92 g/ha (Soybean [7]; 0.893 lb/A)?
**A.** 100%

**Q.** What about the inhibition at 7.95803 g/ha (Rice; 0.0071 lb/A) of the same compound?
**A.** 25%

**Q.** And the inhibition at 40.0143 g/ha (Rice; 0.0357 lb/A)?
**A.** 0%

**Q.** And the inhibition at 200.072 g/ha (Rice; 0.1785 lb/A)?
**A.** 85%

**Q.** And the inhibition at 1000.92 g/ha (Rice; 0.893 lb/A)?
**A.** 100%

**Q.** What about the inhibition at 7.95803 g/ha (Velvetleaf; 0.0071 lb/A) of the same compound?
**A.** 98%

**Q.** And the inhibition at 40.0143 g/ha (Velvetleaf; 0.0357 lb/A)?
**A.** 100%

**Q.** What about the inhibition at 200.072 g/ha (Velvetleaf; 0.1785 lb/A) of the same compound?
**A.** 100%

**Q.** And the inhibition at 280.212 g/ha (Velvetleaf; 0.25 lb/A)?
**A.** 100%

**Q.** And the inhibition at 1000.92 g/ha (Velvetleaf; 0.893 lb/A)?
**A.** 100%

**Q.** What about the inhibition at 7.95803 g/ha (Morning Glory; 0.0071 lb/A) of the same compound?
**A.** 80%

**Q.** What about the inhibition at 40.0143 g/ha (Morning Glory; 0.0357 lb/A) of the same compound?
**A.** 98%

**Q.** What about the inhibition at 200.072 g/ha (Morning Glory; 0.1785 lb/A) of the same compound?
**A.** 90%

**Q.** And the inhibition at 280.212 g/ha (Morning Glory; 0.25 lb/A)?
**A.** 98%

**Q.** And the inhibition at 1000.92 g/ha (Morning Glory; 0.893 lb/A)?
**A.** 100%

**Q.** And the inhibition at 7.95803 g/ha (Cocklebur [8]; 0.0071 lb/A)?
**A.** 100%

**Q.** And the inhibition at 40.0143 g/ha (Cocklebur [8]; 0.0357 lb/A)?
**A.** 75%

**Q.** What about the inhibition at 200.072 g/ha (Cocklebur [8]; 0.1785 lb/A) of the same compound?
**A.** 80%

**Q.** What about the inhibition at 280.212 g/ha (Cocklebur [8]; 0.25 lb/A) of the same compound?
**A.** 60%

**Q.** What about the inhibition at 1000.92 g/ha (Cocklebur [8]; 0.893 lb/A) of the same compound?
**A.** 98%
